Converted amounts (≈) assume the structure as drawn. The source made the active and inactive calls. The rule behind the calls is not given here.
Experiments:
Pseudomonas aeruginosa [1] = experiment: Antibiofilm activity against Pseudomonas aeruginosa PAO1 in ABTGC medium assessed as biofilm biomass at 1/4 times MIC incubated for 24 hrs by crystal violet staining based assay relative to control; type: functional
Pseudomonas aeruginosa [2] = experiment: Antibacterial activity against Pseudomonas aeruginosa ATCC 27853 in MHB medium assessed as bacterial growth inhibition by CLSI based broth microdilution method; type: functional
Pseudomonas aeruginosa [3] = experiment: Antibacterial activity against Pseudomonas aeruginosa PAO1 in MHB medium assessed as bacterial growth inhibition by CLSI based broth microdilution method; type: functional
Pseudomonas aeruginosa [4] = experiment: Antibacterial activity against Pseudomonas aeruginosa FB in MHB medium assessed as bacterial growth inhibition by CLSI based broth microdilution method; type: functional
Pseudomonas aeruginosa [5] = experiment: Antibacterial activity against Pseudomonas aeruginosa 1167 in MHB medium assessed as bacterial growth inhibition by CLSI based broth microdilution method; type: functional
Pseudomonas aeruginosa [6] = experiment: Antibacterial activity against Pseudomonas aeruginosa 1121 in MHB medium assessed as bacterial growth inhibition by CLSI based broth microdilution method; type: functional
Pseudomonas aeruginosa [7] = experiment: Antibacterial activity against Pseudomonas aeruginosa 1129 in MHB medium assessed as bacterial growth inhibition by CLSI based broth microdilution method; type: functional
Escherichia coli = experiment: Antibacterial activity against Escherichia coli ATCC 25922 in MHB medium assessed as bacterial growth inhibition by CLSI based broth microdilution method; type: functional
Klebsiella pneumoniae = experiment: Antibacterial activity against Klebsiella pneumoniae ATCC 700603 in MHB medium assessed as bacterial growth inhibition by CLSI based broth microdilution method; type: functional
Staphylococcus aureus [8] = experiment: Antibacterial activity against Staphylococcus aureus ATCC 25923 in MHB medium assessed as bacterial growth inhibition by CLSI based broth microdilution method; type: functional
Staphylococcus aureus [9] = experiment: Antibacterial activity against methicillin-resistant Staphylococcus aureus ATCC 515992 in MHB medium assessed as bacterial growth inhibition by CLSI based broth microdilution method; type: functional
Pseudomonas aeruginosa [10] = experiment: Antibacterial activity against Pseudomonas aeruginosa PAO1 in ABTGC medium assessed as bacterial growth inhibition; type: functional
Pseudomonas aeruginosa [11] = experiment: Antibiofilm activity against Pseudomonas aeruginosa PAO1 in ABTGC medium assessed as biofilm biomass at 1/2 times MIC incubated for 24 hrs by crystal violet staining based assay relative to control; type: functional
Pseudomonas aeruginosa [12] = experiment: Antibiofilm activity against Pseudomonas aeruginosa PAO1 in ABTGC medium assessed as biofilm biomass at MIC incubated for 24 hrs by crystal violet staining based assay relative to control; type: functional
Pseudomonas aeruginosa [13] = experiment: Antibiofilm activity against Pseudomonas aeruginosa PAO1 assessed as decrease in rhamnolipid level at 15 uM by absorbance based assay; type: functional, organism-based
Pseudomonas aeruginosa [14] = experiment: Antibiofilm activity against Pseudomonas aeruginosa PAO1 assessed as decrease in pyocyanin level at 15 uM by absorbance based assay; type: functional, organism-based
Pseudomonas aeruginosa [15] = experiment: Antibiofilm activity against Pseudomonas aeruginosa PAO1 assessed as inhibition of bacterial motility at 15 uM incubated for 16 hrs relative to control; type: functional, organism-based
Pseudomonas aeruginosa [16] = experiment: Antibiofilm activity against Pseudomonas aeruginosa PAO1 assessed as biofilm eradication at 4 times MIC incubated for 24 hrs by crystal violet staining based assay relative to control; type: functional
Pseudomonas aeruginosa [17] = experiment: Antibiofilm activity against Pseudomonas aeruginosa PAO1 assessed as biofilm eradication at high concentration incubated for 36 hrs by crystal violet staining based assay; type: functional, organism-based
Pseudomonas aeruginosa [18] = experiment: Antibiofilm activity against Pseudomonas aeruginosa PAO1 in ABTGC medium assessed as biofilm biomass at MIC incubated for 24 hrs in presence of 10 uM Fe by crystal violet staining based assay relative to control; type: functional
HEK293 [19] = experiment: Cytotoxicity against HEK293 cells at 50 to 100 uM incubated for 48 hrs by MTT assay relative to control; type: toxicity, cell-based; settings: human, hek293, 48 h, dose 50-100 µM
[20] = Toxicity in Caenorhabditis elegans assessed as survival rate at 50 to 100 uM measured after 48 hrs by bright field microscopy; settings: dose 50-100 µM
Pseudomonas aeruginosa [21] = experiment: Antibacterial activity against Pseudomonas aeruginosa PAO1 assessed as log reduction in CFU/ml at 8 times MIC measured after 2 hrs by time killing analysis; type: functional
Pseudomonas aeruginosa [22] = experiment: Antibacterial activity against Pseudomonas aeruginosa PAO1 assessed as reduction in bacterial CFU count at 8 times MIC measured after 4 hrs by time killing analysis; type: functional, organism-based
Pseudomonas aeruginosa [23] = experiment: Antibacterial activity against Pseudomonas aeruginosa PAO1 assessed as reduction in bacterial viability at MIC measured after 8 hrs by time killing analysis; type: functional, organism-based
Pseudomonas aeruginosa [24] = experiment: Antibacterial activity against Pseudomonas aeruginosa PAO1 assessed as reduction in bacterial viability at 8 times MIC measured after 4 hrs by time killing analysis; type: functional, organism-based
Pseudomonas aeruginosa [25] = experiment: Antibiofilm activity against Pseudomonas aeruginosa PAO1 in ABTGC medium assessed as biofilm biomass at 1/2 times MIC incubated for 24 hrs in presence of 10 uM Fe by crystal violet staining based assay relative to control; type: functional
Pseudomonas aeruginosa [26] = experiment: Antibiofilm activity against Pseudomonas aeruginosa PAO1 in ABTGC medium assessed as biofilm biomass at 1/4 times MIC incubated for 24 hrs in presence of 10 uM Fe by crystal violet staining based assay relative to control; type: functional
Pseudomonas aeruginosa [27] = experiment: Antibiofilm activity against Pseudomonas aeruginosa PAO1 in ABTGC medium assessed as biofilm biomass at MIC incubated for 24 hrs in presence of 40 uM Fe by crystal violet staining based assay relative to control; type: functional
Pseudomonas aeruginosa [28] = experiment: Antibiofilm activity against Pseudomonas aeruginosa PAO1 in ABTGC medium assessed as biofilm biomass at 1/2 times MIC incubated for 24 hrs in presence of 40 uM Fe by crystal violet staining based assay relative to control; type: functional
Pseudomonas aeruginosa [29] = experiment: Antibiofilm activity against Pseudomonas aeruginosa PAO1 in ABTGC medium assessed as biofilm biomass at 1/4 times MIC incubated for 24 hrs in presence of 40 uM Fe by crystal violet staining based assay relative to control; type: functional
Pseudomonas aeruginosa [30] = experiment: Antibiofilm activity against Pseudomonas aeruginosa PAO1 assessed as decrease in rhamnolipid level by absorbance based assay; type: functional, organism-based; settings: dose 1.72-6.88 µM
Pseudomonas aeruginosa [31] = experiment: Antibiofilm activity against Pseudomonas aeruginosa PAO1 assessed as decrease in pyocyanin level by absorbance based assay; type: functional, organism-based; settings: dose 1.72-6.88 µM
Pseudomonas aeruginosa [32] = experiment: Antibiofilm activity against Pseudomonas aeruginosa PAO1 assessed as decrease in rhamnolipid level at 3.44 uM by absorbance based assay relative to control; type: functional; design: scale not given: the % may be the effect or the level left
Pseudomonas aeruginosa [33] = experiment: Antibiofilm activity against Pseudomonas aeruginosa PAO1 assessed as decrease in pyocyanin level at 3.44 uM by absorbance based assay relative to control; type: functional; design: scale not given: the % may be the effect or the level left
Pseudomonas aeruginosa [34] = experiment: Antibiofilm activity against Pseudomonas aeruginosa PAO1 assessed as reduction in swimming motility at 3.44 uM incubated for 16 hrs relative to control; type: functional; design: scale not given: the % may be the effect or the level left
Pseudomonas aeruginosa [35] = experiment: Antibiofilm activity against Pseudomonas aeruginosa PAO1 assessed as reduction in swarming motility at 3.44 uM incubated for 16 hrs relative to control; type: functional; design: scale not given: the % may be the effect or the level left
Pseudomonas aeruginosa [36] = experiment: Antibiofilm activity against Pseudomonas aeruginosa PAO1 assessed as reduction in twitching motility at 3.44 uM incubated for 16 hrs relative to control; type: functional; design: scale not given: the % may be the effect or the level left
HEK293 [37] = experiment: Cytotoxicity against HEK293 cells upto 100 uM incubated for 48 hrs by MTT assay; type: toxicity, cell-based; settings: human, hek293, 48 h
A549 = experiment: Cytotoxicity against human A549 cells upto 100 uM incubated for 16 hrs by MTT assay; type: toxicity, cell-based; settings: a549, 16 h
Pseudomonas aeruginosa [38] = experiment: Antibacterial activity against Pseudomonas aeruginosa PAO1 assessed as decrease in bacterial load at MIC measured for 12 hrs by absorbance based assay; type: functional, organism-based
[39] = Toxicity in Caenorhabditis elegans infected with Pseudomonas aeruginosa PAO1 assessed as survival at MIC measured after 48 hrs by bright field microscopy relative to control; settings: read-out: Activity
Pseudomonas aeruginosa [40] = experiment: Antibacterial activity against Pseudomonas aeruginosa assessed as inhibition of virulence release at 4 ug/ml; type: functional, organism-based; settings: dose 4.0 µg/ml

Structure (SMILES) | Activity (Pseudomonas aeruginosa [1]) [%] | MIC (Pseudomonas aeruginosa [2]) [µM] | MIC (Pseudomonas aeruginosa [3]) [µM] | MIC (Pseudomonas aeruginosa [4]) [µM] | MIC (Pseudomonas aeruginosa [5]) [µM] | MIC (Pseudomonas aeruginosa [6]) [µM] | MIC (Pseudomonas aeruginosa [7]) [µM] | MIC (Escherichia coli) [µM] | MIC (Klebsiella pneumoniae) [µM] | MIC (Staphylococcus aureus [8]) [µM] | MIC (Staphylococcus aureus [9]) [µM] | MIC (Pseudomonas aeruginosa [10]) [µM] | Activity (Pseudomonas aeruginosa [11]) [%] | Activity (Pseudomonas aeruginosa [12]) [%] | Activity (Pseudomonas aeruginosa [16]) [%] | Activity (Pseudomonas aeruginosa [17]) | Activity (Pseudomonas aeruginosa [18]) [%] | Activity [20] | further results
O=C(CCC(=O)N1CCN(c2cc3c(cc2F)c(=O)c(C(=O)O)cn3C2CC2)CC1)NCc1ccccc1 | 102.4 | > 200 | > 200 | > 200 | > 200 | > 200 | > 200 | 15.4 (≈ 8 µg/mL) | > 200 | 30.7 (≈ 16 µg/mL) | > 200 | > 200 | 97.3 | 218.8 |  |  |  |  | Activity (Pseudomonas aeruginosa [13]): inactive; Activity (Pseudomonas aeruginosa [14]): inactive; inhibition (Pseudomonas aeruginosa [15]): inactive
O=C(O)c1cn(C2CC2)c2cc(N3CCNCC3)c(F)cc2c1=O [CIPROFLOXACIN] |  |  |  |  |  |  |  |  |  |  |  |  |  | 109.5 | 23.6 | inactive | 109.5 | Non-Toxic | Activity (HEK293 [19]): 40%
Cc1cc(=O)c(O)c(CNC(=O)CCC(=O)N2CCN(c3cc4c(cc3F)c(=O)c(C(=O)O)cn4C3CC3)CC2)n1C | 21.7 | 0.86 (≈ 0.5 µg/mL) | 0.43 (≈ 0.25 µg/mL) | 1.72 (≈ 1 µg/mL) | 0.86 (≈ 0.5 µg/mL) | 1.72 (≈ 1 µg/mL) | 3.44 (≈ 2 µg/mL) | 0.03 (≈ 0.0174 µg/mL) | 1.72 (≈ 1 µg/mL) | 3.44 (≈ 2 µg/mL) | > 200 | 6.88 (≈ 4 µg/mL) | 111.5 | 39 | 74.2 | Active | 39 | Non-Toxic | FC (Pseudomonas aeruginosa [21]): 2; Activity (Pseudomonas aeruginosa [22]): Active; Activity (Pseudomonas aeruginosa [23]): Active; Activity (Pseudomonas aeruginosa [24]): Active; Activity (Pseudomonas aeruginosa [25]): 111.5%; Activity (Pseudomonas aeruginosa [26]): 21.7%; Activity (Pseudomonas aeruginosa [27]): 211%; Activity (Pseudomonas aeruginosa [28]): 223.4%; Activity (Pseudomonas aeruginosa [29]): 205.2%; Activity (Pseudomonas aeruginosa [30]): Dose-Dependent Effect; Activity (Pseudomonas aeruginosa [31]): Dose-Dependent Effect; Activity (Pseudomonas aeruginosa [32]): 20%; Activity (Pseudomonas aeruginosa [33]): 40%; Activity (Pseudomonas aeruginosa [34]): 63%; Activity (Pseudomonas aeruginosa [35]): 30%; Activity (Pseudomonas aeruginosa [36]): 63%; Activity (HEK293 [37]): Non-Toxic; Activity (A549): Non-Toxic; Activity (Pseudomonas aeruginosa [38]): Active; survival at 48 h [39]: 50%
Cc1cc(=O)c(O)c(CNC(=O)CCC(N)(CCC(=O)NCc2c(O)c(=O)cc(C)n2C)CCC(=O)NCc2c(O)c(=O)cc(C)n2C)n1C | 99.8 | > 200 | > 200 | > 200 | > 200 | > 200 | > 200 | > 200 | > 200 | > 200 | > 200 | > 200 | 346.5 | 315.1 |  |  |  |  | inhibition (Pseudomonas aeruginosa [40]): inactive

From ChEMBL document CHEMBL5316325, “Design and Synthesis of 3-Hydroxy-pyridin-4(1H)-ones-Ciprofloxacin Conjugates as Dual Antibacterial and Antibiofilm Agents against Pseudomonas aeruginosa” (J Med Chem, 2023)
